Experimental data taken from ChEMBL document CHEMBL3885861, “Open TG-GATES”.

Organism: Rattus norvegicus
Experiment: Open TG-GATES - Regimen: Single
Format: toxicity, organism-based, Sprague-Dawley
Parameters: regimen Single, gender Male, age 6 weeks
Settings: in vivo, po, 1000 mg/kg, route gavage, dose level High; for APTT / Bas / Eos / Fbg / Hb / Ht / Lym / MCH / MCHC / MCV / Mono / Neu / PT / Plat / RBC / Ret / WBC: tissue Blood; for KIDNEY_L / KIDNEY_R / KIDNEY_TOTAL: tissue Kidney; for LIVER: tissue Liver; for A/G / ALP / ALT / AST / BUN / CRE / Ca / Cl / DBIL / GLC / IP / LDH / Na / PL / RALB / TBIL / TC / TG / TP / gamma-GTP: tissue Plasma

SMILES: NC(N)=Nc1nc(CSCCC(N)=NS(N)(=O)=O)cs1 [FAMOTIDINE]
- TERMINAL_BW (3 h): 216.4 g
- APTT (3 h): 18.8 s
- Bas (3 h): 0%
- Eos (3 h): 1%
- Fbg (3 h): 209.8 mg/dL
- Hb (3 h): 12.9 g/dL
- Ht (3 h): 37.1%
- Lym (3 h): 80.8%
- MCH (3 h): 20.8 pg
- MCHC (3 h): 34.8%
- MCV (3 h): 59.8 fL
- Mono (3 h): 2.8%
- Neu (3 h): 14%
- PT (3 h): 12.6 s
- Plat (3 h): 124.2 x10_4/uL
- RBC (3 h): 620.2 x10_4/ul
- Ret (3 h): 7.6%
- WBC (3 h): 90.8 x10_2/uL
- KIDNEY_L (3 h): 1 g
- KIDNEY_R (3 h): 1 g
- KIDNEY_TOTAL (3 h): 1.9 g
- LIVER (3 h): 10.2 g
- A/G (3 h): 1.6
- ALP (3 h): 873.2 IU/L
- ALT (3 h): 35.6 IU/L
- AST (3 h): 66.6 IU/L
- BUN (3 h): 9.4 mg/dL
- CRE (3 h): 0.4 mg/dL
- Ca (3 h): 10.7 mg/dL
- Cl (3 h): 103.4 meq/L
- DBIL (3 h): 0.07 mg/dL
- GLC (3 h): 194.4 mg/dL
- IP (3 h): 9 mg/dL
- LDH (3 h): 188.8 IU/L
- Na (3 h): 140 meq/L
- PL (3 h): 149.4 mg/dL
- RALB (3 h): 3.3 g/dL
- TBIL (3 h): 0.1 mg/dL
- TC (3 h): 81.2 mg/dL
- TG (3 h): 51.8 mg/dL
- TP (3 h): 5.3 g/dL
- gamma-GTP (3 h): 1.2 IU/L
- TERMINAL_BW (6 h): 212.4 g
- APTT (6 h): 20.5 s
- Bas (6 h): 0%
- Eos (6 h): 1%
- Fbg (6 h): 217.8 mg/dL
- Hb (6 h): 13.4 g/dL
- Ht (6 h): 37.7%
- Lym (6 h): 74%
- MCH (6 h): 21.7 pg
- MCHC (6 h): 35.4%
- MCV (6 h): 61.2 fL
- Mono (6 h): 2.8%
- Neu (6 h): 20.6%
- PT (6 h): 12.5 s
- Plat (6 h): 112.6 x10_4/uL
- RBC (6 h): 617 x10_4/ul
- Ret (6 h): 6.9%
- WBC (6 h): 73.8 x10_2/uL
- KIDNEY_L (6 h): 1 g
- KIDNEY_R (6 h): 1 g
- KIDNEY_TOTAL (6 h): 1.9 g
- LIVER (6 h): 9 g
- A/G (6 h): 1.6
- ALP (6 h): 885.4 IU/L
- ALT (6 h): 31.8 IU/L
- AST (6 h): 65.8 IU/L
- BUN (6 h): 8.6 mg/dL
- CRE (6 h): 0.4 mg/dL
- Ca (6 h): 10.6 mg/dL
- Cl (6 h): 104 meq/L
- DBIL (6 h): 0.072 mg/dL
- GLC (6 h): 192.4 mg/dL
- IP (6 h): 8.9 mg/dL
- LDH (6 h): 204.2 IU/L
- Na (6 h): 141 meq/L
- PL (6 h): 140.4 mg/dL
- RALB (6 h): 3.4 g/dL
- TBIL (6 h): 0.1 mg/dL
- TC (6 h): 73 mg/dL
- TG (6 h): 50.8 mg/dL
- TP (6 h): 5.5 g/dL
- gamma-GTP (6 h): 1.4 IU/L
- TERMINAL_BW (9 h): 211.3 g
- APTT (9 h): 16.7 s
- Bas (9 h): 0%
- Eos (9 h): 0.8%
- Fbg (9 h): 222.2 mg/dL
- Hb (9 h): 13.1 g/dL
- Ht (9 h): 36.5%
- Lym (9 h): 78%
- MCH (9 h): 22 pg
- MCHC (9 h): 35.9%
- MCV (9 h): 61.4 fL
- Mono (9 h): 2.4%
- Neu (9 h): 17%
- PT (9 h): 12.4 s
- Plat (9 h): 112.4 x10_4/uL
- RBC (9 h): 594.2 x10_4/ul
- Ret (9 h): 7.3%
- WBC (9 h): 68.5 x10_2/uL
- KIDNEY_L (9 h): 1 g
- KIDNEY_R (9 h): 1 g
- KIDNEY_TOTAL (9 h): 1.9 g
- LIVER (9 h): 8.6 g
- A/G (9 h): 1.6
- ALP (9 h): 861.4 IU/L
- ALT (9 h): 28 IU/L
- AST (9 h): 59.8 IU/L
- BUN (9 h): 9.8 mg/dL
- CRE (9 h): 0.4 mg/dL
- Ca (9 h): 10.3 mg/dL
- Cl (9 h): 103.8 meq/L
- DBIL (9 h): 0.052 mg/dL
- GLC (9 h): 205.6 mg/dL
- IP (9 h): 9 mg/dL
- LDH (9 h): 150 IU/L
- Na (9 h): 140 meq/L
- PL (9 h): 151.4 mg/dL
- RALB (9 h): 3.3 g/dL
- TBIL (9 h): 0.1 mg/dL
- TC (9 h): 85.2 mg/dL
- TG (9 h): 27.2 mg/dL
- TP (9 h): 5.4 g/dL
- gamma-GTP (9 h): 0.8 IU/L
- TERMINAL_BW (24 h): 223.1 g
- APTT (24 h): 22.2 s
- Bas (24 h): 0%
- Eos (24 h): 1%
- Fbg (24 h): 218.4 mg/dL
- Hb (24 h): 13.3 g/dL
- Ht (24 h): 37.1%
- Lym (24 h): 77.2%
- MCH (24 h): 21.8 pg
- MCHC (24 h): 35.9%
- MCV (24 h): 60.7 fL
- Mono (24 h): 2.8%
- Neu (24 h): 17.2%
- PT (24 h): 12.3 s
- Plat (24 h): 129.4 x10_4/uL
- RBC (24 h): 612.2 x10_4/ul
- Ret (24 h): 5.8%
- WBC (24 h): 77.3 x10_2/uL
- KIDNEY_L (24 h): 1 g
- KIDNEY_R (24 h): 1 g
- KIDNEY_TOTAL (24 h): 2.1 g
- LIVER (24 h): 9.6 g
- A/G (24 h): 1.6
- ALP (24 h): 1062.2 IU/L
- ALT (24 h): 39 IU/L
- AST (24 h): 65.4 IU/L
- BUN (24 h): 14.4 mg/dL
- CRE (24 h): 0.4 mg/dL
- Ca (24 h): 10.5 mg/dL
- Cl (24 h): 102.6 meq/L
- DBIL (24 h): 0.078 mg/dL
- GLC (24 h): 199.6 mg/dL
- IP (24 h): 8.2 mg/dL
- LDH (24 h): 165 IU/L
- Na (24 h): 140.2 meq/L
- PL (24 h): 137.6 mg/dL
- RALB (24 h): 3.3 g/dL
- TBIL (24 h): 0.1 mg/dL
- TC (24 h): 76.2 mg/dL
- TG (24 h): 67.4 mg/dL
- TP (24 h): 5.5 g/dL
- gamma-GTP (24 h): 1 IU/L
